In patent publication US20130310356A1, “METHOD FOR TREATING BRAIN CANCER” (Niiki Pharma Acquisition Corp. 2, priority 2010, published 2013):
pIC50: −log10 of the molar value.

Legend:
[1] = test system: human glioblastoma cell line U251; assay: ATCC MTT Cell Proliferation Assay, U251; assay type: cell-based; settings: U251, 72 hours treatment
Protocol: Tris(8-quinolinolato)gallium(III) and temozolomide were tested in human glioblastoma cell line U251 (which is resistant to BCNU, See Beljanski et al., Anticancer Res., 13(6A):2301-8 (1993)). Specifically, ATCC's MTT Cell Proliferation Assay® was performed using glioblastoma cell line U251. Stock cultures were allowed to grow to 70-80% confluence for this study. The anti-proliferative activity of tris(8-quinolinolato)gallium(III) or temozolomide against the cell line was evaluated in vitro using the ATCC's MTT Cell Proliferation Assay (Catalog No. 30-1010K). Cultures were maintained in a 37° C. humidified 5% CO2/95% air atmosphere. The cells were treated with tris(8-quinolinolato)gallium(III) or temozolomide at 1,000 μM, or a series of 4x dilutions thereof (250 μM, 62.5 μM, etc.). 100 μl of medium was removed from each well at 72 hours post-treatment and 10 μl MTT reagent was added to each well. The plates were incubated at 37° C. for 4 hours and then 100 μl of detergent was added. The plates were left overnight at room temperature in the dark and was read on a plate reader using SoftMax® Pro (version 5.2, Molecular Devices).
The absorbance data was analyzed as follows: Absorbance values were converted to Percent of Control and plotted against test agent concentrations for IC50 calculations using SoftMax® Pro (version 5.2, Molecular Devices). The plate blank signal average was subtracted from all wells prior to calculating the Percent of Control. Percent of Control values were calculated by dividing the absorbance values for each test well by the No Drug Control average (column 11 values; cells +vehicle control) and multiplying by 100. Plots of Compound Concentration versus Percent of Control were analyzed using the 4-parameter equation to obtain IC50 values and other parameters that describe the sigmoidal dose response curve.
The IC50 value for the test agent was estimated by curve-fitting the data using the following four parameter-logistic equation: […]

[2] = test system: T98G; settings: cited from earlier work
[3] = test system: U87; settings: cited from earlier work
[4] = test system: U373; settings: cited from earlier work
[5] = test system: ACHU; assay: MTT assay, glioblastoma cell line ACHU; assay type: cell-based; settings: drug incubated 3 hours, MTT 72 hours after initial incubation
Protocol: (§1) To test the activities of tris(8-quinolinolato)gallium(III) (“drug”), MTT assays were performed using glioblastoma cell lines. Cells were plated (2×10^3 cells in 100 μl/well) in 96-well plates and allowed to recover for 24 hours. The drug was added in another 100 μl growth medium and incubated with cultured cells for 3 hours before the cell culture medium was replaced to remove the drug. Cell death was measured 72 hours after the initial incubation by MTT assay following the manufacturer's recommendations (EZ4U, Biomedica, Vienna, Austria).

[6] = test system: T98G; assay: MTT assay, glioblastoma cell line T98G; assay type: cell-based
Protocol: as §1

[7] = test system: U87; assay: MTT assay, glioblastoma cell line U87; assay type: cell-based
Protocol: as §1

[8] = test system: U373; assay: MTT assay, glioblastoma cell line U373; assay type: cell-based; settings: drug incubated 3 hours, MTT 72 hours after initial incubation
Protocol: as §1

[9] = test system: glioma cell line U87; assay: 3-dimentional tumor model (HuBiogel), MTT assay and Calcein AM live-cell staining; assay type: cell-based
Protocol: The compound tris(8-quinolinolato)gallium(III) was tested in a 3-dimentional tumor model derived from glioma cell line U87. Specifically, cells were trypsinized, washed, counted by trypan blue exclusion. Tumor beads were then prepared by mixing 20,000 cells/10 μl of HuBiogel (4 mg/mL) (See U.S. patent application Ser. No. 10/546,506, which is incorporated herein by reference). The 3-D tumor beads were cultivated for 72 hours in multi-well plates with complete media (10% FBS) in a 37° C. incubator +5% CO2. Mini-tumors were treated with various concentrations of the test compound tris(8-quinolinolato)gallium(III) in media (final 0.2-0.3% DMSO) or control (DMSO). Repeated drug treatment was done by removing the culture media and replacing with fresh media with drug compound or DMSO. On Day 3, MTT assay and live-cell staining with Calcein AM were performed (5 beads/assay set).
Statistical analysis of data sets (Average, T-test, GI-50) was performed using MS-Excel program. The average GI-50 (the drug concentration required for growth inhibition at 50%) is 0.94 μM.

Structure (SMILES) | pIC50 ([1]; Homo sapiens, U-251) | pIC50 [1] | BCNU (% cytostasis with 50 μg/ml BCNU) [2] [%] | BCNU (% cytostasis with 50 μg/ml BCNU) [3] [%] | BCNU (% cytostasis with 50 μg/ml BCNU) [4] [%] | pIC50 [5] | pIC50 ([6]; drug incubated 3 hours, MTT 72 hours after initial incubation) | activity in cells ([6]; resistant to temozolomide) | activity against cell line ([7]; U87, relatively resistant to BCNU) | pIC50 ([7]; U87, drug incubated 3 hours, MTT 72 hours after initial incubation) | pIC50 [8] | GI50 ([9]; U87 3-D tumor beads in HuBiogel, MTT on Day 3, read-out: average GI-50 (drug concentration required for growth inhibition at 50%)) [nM] | tumor killing in live-cell staining/image analysis ([9]; U87 3-D tumor beads, Calcein AM, Day 3) | tumor proliferation activity ([9]; U87 3-D tumor beads, MTT, Day 3)
Cn1nnc2c(C(N)=O)ncn2c1=O [temozolomide] | 3.55 | – | – | – | – | – | – | – | – | – | – | – | – | –
O=NN(CCCl)C(=O)NCCCl [BCNU] | – | 4.27 | 37.5 ± 8.6 | 18.5 ± 8.2 | 30.4 ± 8.6 | – | – | – | – | – | – | – | – | –
[Ga+3].[O-]c1cccc2cccnc12.[O-]c1cccc2cccnc12.[O-]c1cccc2cccnc12 [tris(8-quinolinolato)gallium(III)] | – | 5.39 | – | – | – | 6.52 | 5.70 | active | active | 6.03 | 5.60 | 940 | dose-dependent tumor killing | significantly inhibited
